# From US20240067651A1 (Biohaven Therapeutics Ltd., priority 2019, published 2024)
# Tests used:
# [1] = Stability in Simulated Intestinal Fluid (SIF); type: in vitro ADME; design: key: % parent compound remaining relative to 0-minute sample
# Procedure: (§1) Simulated gastric fluid (SGF) and Simulated intestinal fluid (SIF) stability are in vitro metrics indicating the ability of a compound to pass through the gastrointestinal tract […] or completely digested. An undigested or nearly undigested compound will usually survive gut transit long enough to be absorbed into the systemic circulation. Greater than 50% remaining intact compound at 1 hour indicates a relatively stable molecule that will likely be absorbed in the gut.
# (§2) For each test compound, samples at a final concentration of 2 μg/mL are prepared in respective blank simulated gastric fluid with pepsin (pH 1.2) and simulated intestinal fluid with pancreatin (pH 6.8). All samples are incubated at 37° C. on a 150-rpm orbital shaker, and an aliquot is removed at predetermined time points (0 to 60 minutes). Samples are precipitated with three volumes of acetonitrile containing propranolol as internal standard, and centrifuged for 10 min at 2,000 g before LC-MS/MS analysis of the supernatant solutions. Percent parent compound remaining is determined relative to 0-minute incubation samples. If a sufficient number of time points are available, the degradation half-life is calculated based on the natural log of % compound remaining vs. time plot.
# Plasma Stability = type: in vitro ADME, human
# Procedure: Plasma stability estimates the ability of a compound to remain intact in the blood. For prodrugs that are intended to be hydrolyzed by plasma enzymes a certain level of instability in plasma indicates the compound is probably breaking down to the parent drug. A stability range of 25-75% remaining parent compound after 1 hour in plasma indicates the compound is likely breaking down to the parent drug molecule and a patient will be exposed to this parent molecule.
# Assessment of plasma stability was carried out by individual incubations of drug candidates in fresh human plasma at a concentration of 1 μM for 1 hour at 37° C. After which, the samples were de-proteinized by addition of 2 volumes of acetonitrile containing 0.1% formic acid and internal standard, vortex mixed for 2 minutes and centrifuged at 4,000 rpm for 10 minutes to pellet precipitated protein. The resulting supernatant containing the drug candidates was diluted 5-fold with water containing 0.1% formic acid and submitted to LCMS/MS analysis. All determinations were done in triplicate. Plasma stability was expressed as percent of control remaining.
# See Pelletier et al. ACS Med. Chem. Lett. 2018, 9, 752-756.
# [2] = Caco-2 Permeability Assay; type: in vitro ADME, human; settings: human
# Description: The compounds of the invention may be tested for biological activity as MPO inhibitors by methods known to those skilled in the art. In addition, methods such as, for example, a Caco-2 assay, may be used to test the bioavailability of the compounds of the invention. A description of a Caco-2 permeability assay is as follows:
# • The Caco-2 monolayer is widely used across the pharmaceutical industry as an in vitro model of the human small intestinal mucosa to predict the absorption of orally administered drugs.^1-4 • The Caco-2 cell model mimics processes such as transcellular transport, paracellular transport, and some aspects of efflux and active transport. • Readout: Papp (A→B), Papp (B→A), Efflux ratio, % Recovery • Controls: with and without Pgp inhibitor; Atenolol, Propanolol, Taxel-1
# The Caco-2 cells are cultured to confluency, trypsinized and seeded onto a filter transwell insert at a density of ^˜32,000 cells/well in DMEM cell culture medium. Cells are grown in a humidified atmosphere of 5% CO2 at 37° C. Following an overnight attachment period (24 h after seeding), the cell medium is replaced with fresh medium in both the apical and basolateral compartments every other day. The cell monolayers are used for transport studies 21 days post seeding after measuring the TEER values ([…]). The apical sides and basolateral sides are washed consecutively with HBSS 2.5% (v/v), HEPES (pH 7.4) or HBSS 2.5% (v/v), HEPES 10% (v/v), and Fetal Bovine Serum (pH 7.4) at 37° C. in an incubator under an atmosphere of 5% CO2.
# Donor working solution is prepared by dilution of DMSO stock of test article or positive control with transport media to 10 μM.
# For A→B directional transport, the donor working solution (with test article or positive control, with or without Pgp inhibitor) is added to the apical (A) compartment and the transport media as receiver working solution is added to the basolateral (B) compartment. For B→A directional transport, the donor working solution (with positive control or test article, with or without Pgp inhibitor) is added to the basolateral (B) compartment and transport media as receiver working solution is added to the apical (A) compartment.
# The cells are incubated in a humidified atmosphere of 5% CO2 at 37° C. for 90 minutes.
# At the end of the incubation, samples are taken from both donor and receiver compartments and transferred into 96-well assay plates containing internal standard solution (IS) in each well. After centrifugation, the supernatant solutions are transferred to clean 96 well plates and analyzed by LC-MS/MS. The MS detection is performed using a Sciex API 4000 instrument. Each compound is analyzed by reversed phase HPLC.
# The parameters Papp (apparent permeability) and efflux ratio are calculated as follows:
# Papp=(dQ/dt)×(1/C0)×(1/A)
# Efflux ratio=Papp[B→A]/Papp[A→B]
# where dQ/dt is the permeability rate, C0 is the initial concentration in the donor compartment, and A is the surface area of the cell monolayer (0.33 cm^2). The Papp value is a rate measured in cm/s. Calculated Papp is ranked as low (<[…]), moderate (1-10×10^−6 cm/s), and high (>[…]).
# Comparing the efflux ratios generated in the presence and absence of a Pgp inhibitor identifies whether the test article is a Pgp substrate.
# Recovery is calculated as follows:
# % Recovery=(Total compound mass in donor and receiver compartments at the end of the incubation/Initial compound mass in the donor compartment)×100.
# [3] = Stability in Simulated Gastric Fluid (SGF); type: in vitro ADME; design: key: % parent compound remaining relative to 0-minute sample
# Procedure: as §1, §2
# [4] = simulated intestinal fluid, at 1 h
# [5] = Caco-2, pH 7.4, Caco-2 monolayer
# [6] = simulated gastric fluid, at 1 h
# [7] = % remaining at 1 h in simulated intestinal fluid
# [8] = % remaining at 1 h in human plasma
# [9] = % remaining at 1 h in simulated gastric fluid
# [10] = simulated intestinal fluid, remaining at 1 h
# [11] = simulated gastric fluid, remaining at 1 h
# [12] = bare number, unit or time not given, the 15th table Examples 204-207
# [13] = % remaining at 1 h in human plasma, the 15th table
smiles,measurement,setting,value
"CC(C)OCCn1c(=S)n(COC(=O)[C@@H](N)C(C)C)c(=O)c2c1ccn2COC(=O)[C@@H](N)C(C)C.O=C(O)C(F)(F)F.O=C(O)C(F)(F)F [Example 297, bis(trifluoroacetic acid) [3-({[(2S)-2-amino-3-methylbutanoyl]oxy}methyl)-4-oxo-1-[2-(propan-2-yloxy)ethyl]-2-sulfanylidene-1H,2H,3H,4H,5H-pyrrolo[3,2-d]pyrimidin-5-yl]methyl (2S)-2-amino-3-methylbutanoate]",SIF,[1]; % remaining @ 1 h,6% @ 1 h
same,human Plasma stability,Plasma Stability; % remaining @ 1 h,6% @ 1 h
same,"Papp at 90 min, 10 µM","[2]; Caco-2, pH 7.4",0.462 ×10⁻⁶ cm/s
same,SGF,[3]; % remaining @ 1 h,100% @ 1 h
Cc1cccc(OC(=O)OCn2ccc3c2c(=O)[nH]c(=S)n3CCOC(C)C)c1 [Example 237],SIF,[1]; [4],2% remaining
same,human Plasma stability,"Plasma Stability; human plasma, at 1 h",1% remaining
same,"Papp at 90 min, 10 µM",[2]; [5],0.723 ×10⁻⁶ cm/s
same,SGF,[3]; [6],74% remaining
CC(C)OCCn1c(=S)[nH]c(=O)c2c1ccn2COC(=O)OCCOCCN.O=C(O)C(F)(F)F [Example 123],SIF,[1]; [7],1% remaining at
same,human Plasma stability,Plasma Stability; [8],65% remaining
same,"Papp at 90 min, 10 µM",[2]; [5],2.44 ×10⁻⁶ cm/s
same,SGF,[3]; [9],97% remaining
"CSCC[C@H](NC(=O)OC(C)(C)C)C(=O)OCCCCC(=O)OCn1ccc2c1c(=O)[nH]c(=S)n2CCOC(C)C [Example 352, {4-oxo-1-[2-(propan-2-yloxy)ethyl]-2-sulfanylidene-1H,2H,3H,4H,5H-pyrrolo[3,2-d]pyrimidin-5-yl}methyl 5-{[(2S)-2-{[(tert-butoxy)carbonyl]amino}-4-(methylsulfanyl)butanoyl]oxy}pentanoate]",SIF,[1]; [10],9% remaining
same,human Plasma stability,"Plasma Stability; human plasma, remaining at 1 h",9% remaining
same,"Papp at 90 min, 10 µM",[2]; [5],2.03 ×10⁻⁶ cm/s
same,SGF,[3]; [11],92% remaining
CCCCCCCCOC(=O)OCSc1nc(=O)c2[nH]ccc2n1CCOC(C)C [Example 206],SIF,[1]; [12],1
same,human Plasma stability,Plasma Stability; [13],99% remaining
same,"Papp at 90 min, 10 µM","[2]; Caco-2, pH 7.4, Caco-2 monolayer, the 15th table",0.138 ×10⁻⁶ cm/s
same,SGF,[3]; [12],91
CCCNC(=O)n1ccc2c1c(=O)[nH]c(=S)n2CCOC(C)C [Example 225],SIF,"[1]; % remaining at 1 h in simulated intestinal fluid, the 17th table",78% remaining
same,human Plasma stability,"Plasma Stability; % remaining at 1 h in human plasma, the 17th table",99% remaining
same,"Papp at 90 min, 10 µM","[2]; Caco-2, pH 7.4, Caco-2 monolayer, the 17th table",24.3 ×10⁻⁶ cm/s
same,SGF,"[3]; % remaining at 1 h in simulated gastric fluid, the 17th table",98% remaining
COC(=O)N1CCCC1C(=O)NCCCCC(=O)OCn1ccc2c1c(=O)[nH]c(=S)n2CCOC(C)C.O=C(O)C(F)(F)F (stereo not drawn) [Example 61],SIF,[1]; [7],92% remaining
same,human Plasma stability,Plasma Stability; [8],0% remaining
same,"Papp at 90 min, 10 µM",[2]; [5],0.971 ×10⁻⁶ cm/s
same,SGF,[3]; [9],98% remaining
"CC(C)C[C@@H](NC(=O)OC(C)(C)C)C(=O)OCn1ccc2c1c(=O)[nH]c(=S)n2CCOC(C)C [Example 317, {4-oxo-1-[2-(propan-2-yloxy)ethyl]-2-sulfanylidene-1H,2H,3H,4H,5H-pyrrolo[3,2-d]pyrimidin-5-yl}methyl (2R)-2-{[(tert-butoxy)carbonyl]amino}-4-methylpentanoate]",SIF,[1]; % remaining @ 1 h,30%@ 1 h
same,human Plasma stability,Plasma Stability; % remaining @ 1 h,99%@ 1 h
same,"Papp at 90 min, 10 µM","[2]; Caco-2, pH 7.4",0.093 ×10⁻⁶ cm/s
same,SGF,[3]; % remaining @ 1 h,56%@ 1 h
CC(C)OCCn1c(=S)[nH]c(=O)c2c1ccn2COC(=O)Oc1ccc(F)cc1 [Example 235],SIF,[1]; [4],1% remaining at
same,human Plasma stability,"Plasma Stability; human plasma, at 1 h",2% remaining
same,"Papp at 90 min, 10 µM",[2]; [5],< 0.369 ×10⁻⁶ cm/s
same,SGF,[3]; [6],60% remaining
"CC(C)OCCn1c(=S)[nH]c(=O)c2c1ccn2COC(=O)CCCCNC(=O)[C@@H](NC(=O)OC(C)(C)C)C(C)C [Example 10, {4-oxo-1-[2-(propan-2-yloxy)-ethyl]-2-sulfanylidene-1H,2H,3H,4H,5H-pyrrolo[3,2-d]pyrimidin-5-yl}methyl5-[(2S)-2-{[(tert-butoxy)carbonyl]amino}-3-methylbutanamido]pentanoate]",SIF,"[1]; % remaining at 1 h, SIF with pancreatin pH 6.8, 2 μg/mL, 37° C.",76%
same,human Plasma stability,"Plasma Stability; % remaining at 1 h, human plasma, 1 μM, 37° C.",72%
same,"Papp at 90 min, 10 µM","[2]; Caco-2, pH 7.4, donor 10 μM, 90 minutes, 37° C., direction not given",4.87 ×10⁻⁶ cm/s
same,SGF,"[3]; % remaining at 1 h, SGF with pepsin pH 1.2, 2 μg/mL, 37° C.",81%
CC(C)OCCn1c(SCOC(=O)C(C)(C)C)nc(=O)c2c1ccn2COC(=O)C(C)(C)C [Example 144],"Papp at 90 min, 10 µM",[2]; [5],5.11 ×10⁻⁶ cm/s
CC(C)OCCn1c(SCOC(=O)c2ccccc2)nc(=O)c2c1ccn2COC(=O)c1ccccc1.O=C(O)C(F)(F)F [Example 158],"Papp at 90 min, 10 µM",[2]; [5],5.37 ×10⁻⁶ cm/s
CCCNC(=O)OCSc1nc(=O)c2[nH]ccc2n1CCOC(C)C [Example 182],SIF,"[1]; % remaining at 1 h in simulated intestinal fluid, the 15th table",69% @ 1 h
same,human Plasma stability,Plasma Stability; [13],94% @ 1 h
same,SGF,"[3]; % remaining at 1 h in simulated gastric fluid, the 15th table",81% @ 1 h
"CC(C)OCCn1c(SCOC(=O)N(C)CCOCCN)nc(=O)c2c1ccn2COC(=O)N(C)CCOCCN.O=C(O)C(F)(F)F.O=C(O)C(F)(F)F [Example 382, bis(trifluoroacetic acid) (2-{[({[2-(2-aminoethoxy)ethyl](methyl)carba-moyl}oxy)methyl]sulfanyl}-4-oxo-1-[2-(propan-2-yloxy)ethyl]-1H,4H,5H-pyrrolo[3,2-d]pyrimidin-5-yl)methyl N-[2-(2-aminoethoxy)ethyl]-N-methylcarbamate]",SIF,[1]; [10],99% remaining
same,human Plasma stability,"Plasma Stability; human plasma, remaining at 1 h",98% remaining
same,SGF,[3]; [11],100% remaining
